Source: paper PMC12010937, “Evaluation of FXR Activity in Pollutants Identified in Sewage Sludge and Subsequent in Vitro and in Vivo Characterization of Metabolic Effects of Triphenyl Phosphate” (Environmental Health Perspectives, 2025)
Like-named read-outs stand apart in the source and are kept apart here.

Test system: C57BL/6N mice
Details: TPHP-L group, liver
[1] = adduct [M+Na]+, first of two TG 52:3 lines
[2] = adduct [M+Na]+, second of two TG 52:3 lines

O=P(Oc1ccccc1)(Oc1ccccc1)Oc1ccccc1 [TPHP, triphenyl phosphate]
Z-score of CAR 6:0 (adduct [M+H]+): 0.06
Z-score of CAR 10:0 (adduct [M+H]+): 0.42
Z-score of CAR 12:0 (adduct [M+H]+): 0.80
Z-score of CAR 16:2 (adduct [M+H]+): -0.06
Z-score of CAR 18:2 (adduct [M+H]+): -0.03
Z-score of CAR 18:4 (adduct [M+H]+): 0.78
Z-score of CAR 20:4 (adduct [M+H]+): 0.82
Z-score of NAE 14:0 (adduct [M+H]+): -0.48
Z-score of NAE 20:5 (adduct [M+H]+): 1.00
Z-score of PC 40:6 (adduct [M+H]+): -0.17
Z-score of PS 36:4 (adduct [M+H]+): 0.68
Z-score of SM 27:5;O2 (adduct [M+H]+): 0.55
Z-score of SM 28:3;O3 (adduct [M+H]+): 0.44
Z-score of SM 31:3;O3 (adduct [M+H]+): -0.11
Z-score of SM 41:2;O2 (adduct [M+H]+): 0.71
average intensity of CAR 6:0 (adduct [M+H]+): 2396721
average intensity of CAR 10:0 (adduct [M+H]+): 1504841
average intensity of CAR 12:0 (adduct [M+H]+): 2823213
average intensity of CAR 16:2 (adduct [M+H]+): 1645671
average intensity of CAR 18:2 (adduct [M+H]+): 11661319
average intensity of CAR 18:4 (adduct [M+H]+): 10920113
average intensity of CAR 20:4 (adduct [M+H]+): 36994205
average intensity of NAE 14:0 (adduct [M+H]+): 681808
average intensity of NAE 20:5 (adduct [M+H]+): 53457329
average intensity of PC 40:6 (adduct [M+H]+): 25730542
average intensity of PS 36:4 (adduct [M+H]+): 1577436
average intensity of SM 27:5;O2 (adduct [M+H]+): 18375860
average intensity of SM 28:3;O3 (adduct [M+H]+): 1750893
average intensity of SM 31:3;O3 (adduct [M+H]+): 1688236
average intensity of SM 41:2;O2 (adduct [M+H]+): 9894007
Z-score of BMP 25:4 (adduct [M+NH4]+): -0.15
Z-score of BMP 30:5 (adduct [M+NH4]+): -0.42
Z-score of BMP 38:4 (adduct [M+NH4]+): -0.33
Z-score of PG 21:2 (adduct [M+NH4]+): -0.09
Z-score of PI 39:10 (adduct [M+NH4]+): -0.15
Z-score of TG 48:11 (adduct [M+NH4]+): -0.30
Z-score of TG 55:4 (adduct [M+NH4]+): -0.04
average intensity of BMP 25:4 (adduct [M+NH4]+): 28243710
average intensity of BMP 30:5 (adduct [M+NH4]+): 997136
average intensity of BMP 38:4 (adduct [M+NH4]+): 9007436
average intensity of PG 21:2 (adduct [M+NH4]+): 4648685
average intensity of PI 39:10 (adduct [M+NH4]+): 2117103
average intensity of TG 48:11 (adduct [M+NH4]+): 18422444
average intensity of TG 55:4 (adduct [M+NH4]+): 5767515
Z-score of Cer 42:1;O2 (adduct [M+Na]+): -0.14
Z-score of Cer 64:6;O2 (adduct [M+Na]+): 0.49
Z-score of DG 19:1 (adduct [M+Na]+): -0.58
Z-score of DG 26:5 (adduct [M+Na]+): -0.57
Z-score of DG 26:6 (adduct [M+Na]+): -0.39
Z-score of PC 29:5 (adduct [M+Na]+): -0.26
Z-score of PC 38:6 (adduct [M+Na]+): -0.37
Z-score of PC 42:9 (adduct [M+Na]+): -0.33
Z-score of PS 40:7 (adduct [M+Na]+): 0.24
Z-score of TG 52:2 (adduct [M+Na]+): 0.37
Z-score of TG 52:4 (adduct [M+Na]+): 0.20
average intensity of Cer 42:1;O2 (adduct [M+Na]+): 2208919
average intensity of Cer 64:6;O2 (adduct [M+Na]+): 16081083
average intensity of DG 19:1 (adduct [M+Na]+): 5508
average intensity of DG 26:5 (adduct [M+Na]+): 1202226
average intensity of DG 26:6 (adduct [M+Na]+): 565410
average intensity of PC 29:5 (adduct [M+Na]+): 8118187
average intensity of PC 38:6 (adduct [M+Na]+): 13132954
average intensity of PC 42:9 (adduct [M+Na]+): 1167997
average intensity of PS 40:7 (adduct [M+Na]+): 3607887
average intensity of TG 52:2 (adduct [M+Na]+): 9167552
average intensity of TG 52:4 (adduct [M+Na]+): 2497450
Z-score of TG 52:3 [1]: 0.19
average intensity of TG 52:3 [1]: 1036928
Z-score of TG 52:3 [2]: 0.18
average intensity of TG 52:3 [2]: 8512501
Z-score of Cer 40:1;O2 (adduct [M-H]-): -0.23
Z-score of Cer 41:1;3O(2OH) (adduct [M-H]-): -0.38
Z-score of Cer 42:1;3O(2OH) (adduct [M-H]-): -0.39
Z-score of Cer 43:1;3O(2OH) (adduct [M-H]-): -0.38
Z-score of FA 10:1 (adduct [M-H]-): -0.53
Z-score of FA 14:2 (adduct [M-H]-): 0.22
Z-score of FA 16:2;O (adduct [M-H]-): 0.94
Z-score of FA 19:2;O2 (adduct [M-H]-): 0.68
Z-score of PG 34:2 (adduct [M-H]-): -0.56
Z-score of PG 44:12 (adduct [M-H]-): -0.57
Z-score of PI 36:3 (adduct [M-H]-): -0.53
Z-score of PI 38:4 (adduct [M-H]-): 0.83
average intensity of Cer 40:1;O2 (adduct [M-H]-): 383914
average intensity of Cer 41:1;3O(2OH) (adduct [M-H]-): 1471085
average intensity of Cer 42:1;3O(2OH) (adduct [M-H]-): 280519
average intensity of Cer 43:1;3O(2OH) (adduct [M-H]-): 206714
average intensity of FA 10:1 (adduct [M-H]-): 231265
average intensity of FA 14:2 (adduct [M-H]-): 1600712
average intensity of FA 16:2;O (adduct [M-H]-): 1172357
average intensity of FA 19:2;O2 (adduct [M-H]-): 7389373
average intensity of PG 34:2 (adduct [M-H]-): 228532
average intensity of PG 44:12 (adduct [M-H]-): 36906
average intensity of PI 36:3 (adduct [M-H]-): 498699
average intensity of PI 38:4 (adduct [M-H]-): 49874871
